# Measurements from BindingDB's records for doi:10.1021/jm00126a011 (Pfizer, 1989).
# Target: T1, Aldo-keto reductase family 1 member B1 (Homo sapiens, UniProt P15121)
# Assay: Compound was evaluated for inhibition of human placental aldose reductase (HPAR) activity with glyceraldehyde as substrate
row,IC50 [nM],Compound
1,50,CS(=O)(=O)c1ccc(Cl)cc1-c1[nH]c(=O)[nH]c1O
2,250,C[S+]([O-])c1ccc(Cl)cc1-c1[nH]c(=O)[nH]c1O (configuration not stated)

# Target: T1, Aldo-keto reductase family 1 member B1
# Assay: ChEBML_157077
# Excerpt: Inhibition of human placental aldose reductase (HPAR) activity with glyceraldehyde as substrate
row,IC50 [nM],Compound
1,580,CCCNS(=O)(=O)c1ccc(Cl)cc1-c1[nH]c(=O)[nH]c1O
2,230,O=c1[nH]c(O)c(-c2cc(Cl)ccc2S(=O)(=O)Nc2ccc(F)cc2)[nH]1
3,50,CCCCCS(=O)(=O)c1ccc(Cl)cc1-c1[nH]c(=O)[nH]c1O
4,610,CS(=O)(=O)c1ccc(F)cc1-c1[nH]c(=O)[nH]c1O
5,610,CS(=O)(=O)c1c(Cl)cc(Cl)cc1-c1[nH]c(=O)[nH]c1O
6,580,CS(=O)(=O)c1c(-c2[nH]c(=O)[nH]c2O)cc(Cl)cc1C(F)(F)F
7,250,CCCS(=O)(=O)c1ccc(Cl)cc1-c1[nH]c(=O)[nH]c1O
8,270,Cc1cc(Cl)cc(-c2[nH]c(=O)[nH]c2O)c1S(C)(=O)=O
9,230,CCCCCCS(=O)(=O)c1ccc(Cl)cc1-c1[nH]c(=O)[nH]c1O
10,270,O=c1[nH]c(O)c(-c2cc(Cl)ccc2S(=O)(=O)Cc2ccc(Cl)cc2)[nH]1
